Test results from ChEMBL document CHEMBL1129332, “2-Phenyl-4-quinolinecarboxamides: a novel class of potent and selective non-peptide competitive antagonists for the human neurokinin-3 receptor” (J Med Chem, 1996).

Key:
Substance-K receptor = molecular target: T1, Substance-K receptor (Homo sapiens, UniProt P21452); type: cell membranes, CHO
T1 sequence (P21452 whole entry): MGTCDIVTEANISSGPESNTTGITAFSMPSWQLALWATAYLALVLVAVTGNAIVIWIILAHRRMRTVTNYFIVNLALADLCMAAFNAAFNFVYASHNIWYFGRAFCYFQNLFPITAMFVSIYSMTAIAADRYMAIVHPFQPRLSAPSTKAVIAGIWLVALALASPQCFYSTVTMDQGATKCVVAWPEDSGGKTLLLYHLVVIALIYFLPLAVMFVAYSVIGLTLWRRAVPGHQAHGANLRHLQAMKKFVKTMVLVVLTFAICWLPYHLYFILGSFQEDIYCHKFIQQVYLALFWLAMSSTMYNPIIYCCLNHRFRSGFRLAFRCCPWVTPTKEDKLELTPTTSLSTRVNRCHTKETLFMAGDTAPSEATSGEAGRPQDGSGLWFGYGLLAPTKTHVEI

Substance-P receptor [1] = molecular target: T2, Substance-P receptor (Homo sapiens, UniProt P25103); assay: Binding Affinity of [3H]- substance P towards Tachykinin receptor 1-CHO cell membranes (n=3-8)
Substance-P receptor [2] = molecular target: T2, Substance-P receptor; assay: Binding affinity against hTachykinin receptor 1 for the displacement of [3H]-substance P binding from Tachykinin receptor 1 CHO membrane
Oryctolagus cuniculus = species: Oryctolagus cuniculus; assay: Antagonism of senktide-induced contraction in rabbit isolated iris sphincter muscle; type: functional

T2 sequence (P25103 whole entry): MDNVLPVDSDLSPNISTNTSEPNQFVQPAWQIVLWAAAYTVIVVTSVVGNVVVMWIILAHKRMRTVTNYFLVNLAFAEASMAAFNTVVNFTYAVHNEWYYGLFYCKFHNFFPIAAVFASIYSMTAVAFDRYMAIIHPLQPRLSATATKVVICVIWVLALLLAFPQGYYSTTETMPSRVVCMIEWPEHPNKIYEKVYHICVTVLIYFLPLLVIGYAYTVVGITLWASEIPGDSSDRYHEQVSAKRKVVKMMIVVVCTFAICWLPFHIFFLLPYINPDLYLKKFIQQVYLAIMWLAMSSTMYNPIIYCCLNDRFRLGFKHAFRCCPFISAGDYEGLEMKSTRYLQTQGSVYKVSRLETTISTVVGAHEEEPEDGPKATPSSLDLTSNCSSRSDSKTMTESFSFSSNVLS

Row | Ki (Substance-K receptor) | Ki (Substance-P receptor [1]) | Ki (Substance-P receptor [2]) | Compound | Kb (Oryctolagus cuniculus)
1 | 2950 nM | > 100000 nM | – | COC(=O)C(NC(=O)c1cc(-c2ccccc2)nc2ccccc12)c1ccccc1 (configuration not stated) | –
2 | – | – | > 10000 nM | COc1ccc2c(C(=O)NCc3ccccc3)cc(-c3ccccc3)nc2c1 | –
3 | 1220 nM | > 100000 nM | – | COC(=O)[C@@H](NC(=O)c1cc(-c2ccccc2)nc2ccccc12)c1ccccc1 | –
4 | 8330 nM | > 100000 nM | – | COC(=O)[C@H](NC(=O)c1cc(-c2ccccc2)nc2ccccc12)c1ccccc1 | –
5 | 237 nM | > 100000 nM | – | CC[C@H](NC(=O)c1cc(-c2ccccc2)nc2ccccc12)c1ccccc1 [AZD-7624] | –
6 | – | – | – | CC(=O)N(C)C1(c2ccccc2)CCN(CCC[C@]2(c3ccc(Cl)c(Cl)c3)CCCN(C(=O)c3ccccc3)C2)CC1 [OSANETANT] | 2 nM
7 | 277 nM | > 100000 nM | – | CC[C@H](NC(=O)c1c(C)c(-c2ccccc2)nc2ccccc12)c1ccccc1 [SB-222200] | –
